In US20230265104A1, “NOVEL HETEROCYCLIC COMPOUNDS” (PRISM BIOLAB CO., LTD., priority 2020, published 2023):

System: PANC-1 (human pancreatic cancer-derived cell line)
Assay: MTS assay on Panc-1 (human pancreas carcinoma cell line)
Assay type: cell-based
Details: 144 h; for inhibition at 0.15625 µM: read-out: Growth inhibition (%) 0.15625 μM; for IC50: PANC-1, MTS method, cell survival 6 days after exposure, 4-parameter logistic fit; for inhibition at 0.3125 µM: read-out: Growth inhibition (%) 0.3125 μM; for inhibition at 1 µM: read-out: Growth inhibition (%) 1 μM
In short: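 PANC-1 cells in D-MEM + 10% FBS at 37 °C, 5% CO2 exposed to 2-fold serial DMSO dilutions of compound for 6 days. Survival read by MTS (492 minus 630 nm, blank-corrected) relative to DMSO control as 100%; mean of 3 runs, 4-parameter logistic fit.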

SMILES | inhibition at 0.15625 µM (PANC-1, MTS, 6 days) [%] | inhibition at 0.3125 µM (PANC-1, MTS, 6 days) [%] | further results
CNC(=O)CCCC#Cc1csc(/C=C/C(=O)N2O[C@H](CC(C)C)C(=O)N3[C@@H]2CN([C@H]2CCN(CCCCO)C2)C(=O)[C@@H]3CC(C)(C)C)n1 [ID-93, 6-(2-((E)-3-((3R, 6S, 9aS)-8-((S)-1-(4-hydroxybutyl)pyrrolidin-3-yl)-3-isobutyl-6-neopentyl-4,7-dioxohexahydropyrazino[2,1-c][1,2,4]oxadiazin-1(6H)-yl)-3-oxoprop-1-en-1-yl)thiazol-4-yl)—N-methylhex-5-ynamide] | 37.4 | – | –
CC(C)C[C@H]1ON(C(=O)/C=C/c2nc(C#CC3CCOCC3)cs2)[C@H]2CN([C@@H]3CCN(CCCCO)C3)C(=O)[C@H](CC(C)(C)C)N2C1=O [ID-94, (3R,6S,9aS)-8-((R)-1-(4-hydroxybutyl)pyrrolidin-3-yl)-3-isobutyl-6-neopentyl-1-((E)-3-(4-((tetrahydro-2H-pyran-4-yl)ethynyl)thiazol-2-yl)acryloyl)tetrahydropyrazino[2,1-c] [1,2,4]oxadiazine-4,7-(3H,6H)-dione] | 42.3 | – | –
CC(C)C[C@@H]1ON(C(=O)/C=C/c2nc3ccccc3s2)[C@@H]2CN([C@@H]3CCN(CCCCO)C3)C(=O)[C@H](CC(C)(C)C)N2C1=O [ID-95, (3S,6S,9aR)-1-((E)-3-(benzo[d]thiazol-2-yl)acryloyl)-8-((R)-1-(4-hydroxybutyl)pyrrolidin-3-yl)-3-isobutyl-6-neopentyltetrahydropyrazino[2,1-c][1,2,4]oxadiazine-4,7(3H,6H)-dione] | – | – | IC50: 1400 nM
CC(C)C[C@H]1CN(C(=O)/C=C/c2nc3ccccc3s2)[C@H]2CN([C@@H]3CCN(CCCCO)C3)C(=O)[C@H](CC(C)(C)C)N2C1=O [ID-96, (3S,6S,9aR)-1-((E)-3-(benzo[d]thiazol-2-yl)acryloyl)-8-((R)-1-(4-hydroxybutyl)pyrrolidin-3-yl)-3-isobutyl-6-neopentylhexahydro-4H-pyrazino[1,2-a]pyrimidine-4,7(6H)-dione] | – | -1.7 | inhibition at 10 µM (PANC-1, MTS, 6 days, 10 μM, read-out: Growth inhibition (%) 10 μM): 101%
CC(C)C[C@H]1ON(C(=O)/C=C/c2nc(C#CCOCCO)cs2)[C@H]2CN(C3CCN(C(C)C)CC3)C(=O)[C@H](CC(C)(C)C)N2C1=O [ID-97, (3R,6S,9aS)-1-((E)-3-(4-(3-(2-hydroxyethoxy)prop-1-yn-1-yl)thiazol-2-yl)acryloyl)-3-isobutyl-8-(1-isopropylpiperidin-4-yl)-6-neopentyltetrahydropyrazino[2,1-c][1,2,4]oxadiazine-4,7 (3H, 6H)-dione] | 51 | – | IC50: 150 nM
CC(C)C[C@H]1ON(C(=O)/C=C/c2nc3cc(O)ccc3s2)[C@H]2CN(C3CCN(C(C)C)CC3)C(=O)[C@H](CC(C)(C)C)N2C1=O [ID-98, (3R,6S,9aS)-1-((E)-3-(5-hydroxybenzo[d]thiazol-2-yl)acryloyl)-3-isobutyl-8-(1-isopropylpiperidin-4-yl)-6-neopentyltetrahydropyrazino[2,1-c][1,2,4]oxadiazine-4,7(3H,6H)-dione] | 61.7 | – | –
CC(C)N1CCC(N2C[C@@H]3N(C(=O)/C=C/c4nc(C#CCCCCO)cs4)O[C@H](CC4CC4)C(=O)N3[C@@H](CC(C)(C)C)C2=O)CC1 [ID-99, (3R,6S,9aS)-3-(cyclopropylmethyl)-1-((E)-3-(4-(6-hydroxyhex-1-yn-1-yl)thiazol-2-yl)acryloyl)-8-(1-isopropylpiperidin-4-yl)-6-neopentyltetrahydropyrazino[2,1-c] [1,2,4]oxadiazine-4,7(3H,6H)-dione] | 61.1 | – | –
C#Cc1sc(/C=C/C(=O)N2O[C@H](CC(C)C)C(=O)N3[C@@H]2CN(C2CCN(C(C)C)CC2)C(=O)[C@@H]3CC(C)(C)C)nc1C#CCCCO [ID-100, (3R,6S,9aS)-1-((E)-3-(5-ethynyl-4-(5-hydroxypent-1-yn-1-yl)thiazol-2-yl)acryloyl)-3-isobutyl-8-(1-isopropylpiperidin-4-yl)-6-neopentyltetrahydropyrazino[2,1-c][1,2,4]oxadiazine-4,7(3H,6H)-dione] | 99.8 | – | –
CC(C)C[C@H]1ON(C(=O)/C=C/c2nc3cc(OCCCO)ccc3s2)[C@H]2CN(C3CCN(C(C)C)CC3)C(=O)[C@H](CC(C)(C)C)N2C1=O [ID-101, (3R,6S,9aS)-1-((E)-3-(5-(3-hydroxypropoxy)benzo[d]thiazol-2-yl)acryloyl)-3-isobutyl-8-(1-isopropylpiperidin-4-yl)-6-neopentyltetrahydropyrazino[2,1-c][1,2,4]oxadiazine-4,7(3H,6H)-dione] | 65.6 | – | –
CC(C)C[C@H]1ON(C(=O)/C=C/c2nc(C#CCCCO)cs2)[C@H]2CN(C3CCN(C4CC4)CC3)C(=O)[C@H](CC(C)(C)C)N2C1=O [ID-102, (3R,6S,9aS)-8-(1-cyclopropylpiperidin-4-yl)-1-((E)-3-(4-(5-hydroxypent-1-yn-1-yl)thiazol-2-yl)acryloyl)-3-isobutyl-6-neopentyltetrahydropyrazino[2,1-c][1,2,4]oxadiazine-4,7(3H,6H)-dione] | 36.9 | – | –
C#Cc1sc(/C=C/C(=O)N2O[C@H](CC(C)C)C(=O)N3[C@@H]2CN(C2CCN(C)CC2)C(=O)[C@@H]3CC(C)(C)C)nc1C#CCCCO [ID-103, (3R,6S,9aS)-1-((E)-3-(5-ethynyl-4-(5-hydroxypent-1-yn-1-yl)thiazol-2-yl)acryloyl)-3-isobutyl-8-(1-methylpiperidin-4-yl)-6-neopentyltetrahydropyrazino[2,1-c][1,2,4]oxadiazine-4,7 (3H, 6H)-dione] | – | 99.6 | –
CC(C)(C)C[C@H]1C(=O)N([C@@H]2CCN(CCCCO)C2)C[C@@H]2N(C(=O)/C=C/c3nc4ccccc4s3)O[C@H](C[C@H]3C[C@@H]3CCc3ccccc3)C(=O)N21 [ID-104, (3R,6S,9aS)-1-((E)-3-(benzo[d]thiazol-2-yl)acryloyl)-8-((R)-1-(4-hydroxybutyl)pyrrolidin-3-yl)-6-neopentyl-3-(((1R,2S)-2-phenethylcyclopropyl)methyl)tetrahydropyrazino[2,1-c][1,2,4]oxadiazine-4,7(3H,6H)-dione] | – | 30.1 | –
CC(C)(C)C[C@H]1C(=O)N([C@@H]2CCN(CCCCO)C2)C[C@@H]2N(C(=O)/C=C/c3cnc4ccccc4n3)O[C@H](CCCCNC(=O)OCc3ccccc3)C(=O)N21 [ID-105, benzyl (4-((3R,6S,9aS)-8-((R)-1-(4-hydroxybutyl)pyrrolidin-3-yl)-6-neopentyl-4,7-dioxo-1-((E)-3-(quinoxalin-2-yl)acryloyl)octahydropyrazino[2,1-c][1,2,4]oxadiazin-3-yl)butyl)carbamate] | – | – | inhibition at 30 µM (PANC-1, MTS, 6 days, 30 μM, read-out: Growth inhibition (%) 30 μM): 98.3%
CC(C)N1CCC(N2C[C@@H]3N(C(=O)/C=C/c4cnc5ccccc5n4)O[C@H](CC4CCCCC4)C(=O)N3[C@@H](CC(C)(C)C)C2=O)CC1 [ID-106, (3R,6S,9aS)-3-(cyclohexylmethyl)-8-(1-isopropylpiperidin-4-yl)-6-neopentyl-1-((E)-3-(quinoxalin-2-yl)acryloyl)tetrahydropyrazino[2,1-c][1,2,4]oxadiazine-4,7(3H,6H)-dione] | – | 29.8 | inhibition at 1 µM (PANC-1, MTS, 6 days): 101%
CCC(CC)C[C@H]1ON(C(=O)/C=C/c2cnc3ccccc3n2)[C@H]2CN([C@@H]3CCN(CCCCO)C3)C(=O)[C@H](CC(C)(C)C)N2C1=O [ID-107, (3R, 6S, 9aS)-3-(2-ethylbutyl)-8-((R)-1-(4-hydroxybutyl)pyrrolidin-3-yl)-6-neopentyl-1-((E)-3-(quinoxalin-2-yl)acryloyl)tetrahydropyrazino[2,1-c][1,2,4]oxadiazine-4,7(3H,6H)-dione] | – | 94.3 | IC50: 200 nM; inhibition at 1 µM (PANC-1, MTS, 6 days): 98.5%
